{
  "source": "patent US20260272865A1",
  "about": "“HYDROXYPHENYL PROPANOATE COMPOUNDS FOR TUMOUR IMMUNOTHERAPY, COMPOSITIONS AND USES THEREOF” (UTI LIMITED PARTNERSHIP, priority 2023, published 2026)",
  "key": {"[1]": {"biological_target": "T1, GSDMD (Homo sapiens, UniProt P57764)", "T1 construct": "host or cells: THP1-Dual cells (human monocytic reporter line)", "T1 sequence (P57764 1-484)": "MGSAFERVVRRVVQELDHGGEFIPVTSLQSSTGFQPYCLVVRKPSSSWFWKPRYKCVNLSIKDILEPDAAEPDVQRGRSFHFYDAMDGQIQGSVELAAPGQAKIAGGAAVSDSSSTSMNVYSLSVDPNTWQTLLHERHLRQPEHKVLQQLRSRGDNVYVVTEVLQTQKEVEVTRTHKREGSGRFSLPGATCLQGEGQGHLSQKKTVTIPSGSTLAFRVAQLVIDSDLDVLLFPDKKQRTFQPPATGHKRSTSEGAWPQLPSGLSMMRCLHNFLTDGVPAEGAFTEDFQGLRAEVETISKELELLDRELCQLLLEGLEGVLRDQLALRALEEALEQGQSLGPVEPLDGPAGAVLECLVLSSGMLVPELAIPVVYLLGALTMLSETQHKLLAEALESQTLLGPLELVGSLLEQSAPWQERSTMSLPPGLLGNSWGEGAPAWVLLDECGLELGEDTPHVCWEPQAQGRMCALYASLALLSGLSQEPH", "experiment": "Western blot of GSDMD cleavage in THP-1 cells", "assay_type": "cell-based", "description": "Cells were collected and lysates prepared using total lysis buffer (50 mM Tris-HCl, pH 8.0; 150 mM NaCl; 1% Triton X-100; 1% SDS). The supernatant was obtained by centrifuging at 10,000 RPM for 10 minutes at 4° C. using a benchtop PCR centrifuge. Protein quantification was performed using the Bio-Rad DC Protein Assay Kit (Bio-Rad, NC, USA). Proteins were separated using 12% SDS-PAGE gels and transferred to a PVDF membrane using the Bio-Rad Trans-turbo semi-dry transfer apparatus at 25 V/1 A for 1 hour. The membrane was blocked with Tris-buffered-saline-Tween-20™ (TBST) containing 5% skim milk for 30 minutes at room temperature. The membrane was then probed overnight at 4° C. with rabbit monoclonal recombinant anti-GSDMD antibody (ab210070, Abcam), anti-cleaved N-terminal GSDMD antibody (ab215203, Abcam) and mouse anti-actin monoclonal antibody (MAB1501, MilliporeSigma) for human FL-GSDMD, CL-GSDMD and actin. The next day, the membranes were washed with TBST three times and probed with goat anti-rabbit (1706515, Bio-Rad) or goat anti-mouse (1706516, Bio-Rad) horseradish peroxidase-conjugated IgG for 1 hour at room temperature. The secondary antibodies were diluted in TBST containing 5% (w/v) skim milk at 1:5000 and the membranes washed with TBST before detecting the proteins of interest using the Clarity™ Western ECL Substrate (Bio-Rad) on a Chemidoc-IT Imager (UVP, Upland, CA, USA)."}, "[2]": {"test_system": "IRF pathway", "assay_type": "cell-based, human"}, "[3]": {"test_system": "NF-κB pathway", "experiment": "NF-κB activity reporter assay in THP1-Dual cells", "assay_type": "cell-based, human", "conditions": "for NF-κB pathway activation combined with PRR agonists: LPS or other NF-κB pathway inducers; for NF-κB pathway activation when treated with LPS: 16 hours, vs vehicle", "description": "NF-κB and IRF induction assays were performed using mouse RAW-Dual™ (InvivoGen) and human THP1-Dua™ (InvivoGen) reporter cell lines. The cells were resuspended in freshly prepared test media at a concentration of 1.0×10^6 cells/mL for RAW-Dual™ and 5.0×10^5 cells/mL for THP1-Dual™. 180 μL of cells were seeded per well in a standard 96-well plate and optimized the concentration of several PRR agonists that trigger NF-κB and IRF. To test the metabolite effect on these pathways, 10 μL of the optimized receptor agonist, 10 μL of the 2 mM metabolite solution or vehicle was added to each well, making a final volume of 200 μL. To neutralize IL-1 receptor signalling, anti-IL-1a (clone 7D4, InvivoGen) and anti-IL-1β (clone 4H5, InvivoGen) antibodies were added and IgG1 isotype (clone T8E5, InvivoGen) was used as a control, as per manufacturer's recommendation. NF-κB activity was determined by measuring secreted embryonic alkaline phosphatase (SEAP) levels using QUANTI-Blue™ solution (InvivoGen). After aliquoting 20 μL of cell culture supernatant into 180 μL of QUANTI-Blue™, the conversion of color to blue was monitored and SEAP levels were determined using a SpectraMax i3 from Molecular Devices at 650 nm. To assess IRF induction, secreted lucia luciferase levels were measured in the culture medium using QUANTI-Luc™ solution (InvivoGen). 20 μL of cell culture supernatant was aliquoted into 50 μL of QUANTI-Luc™ solution and the luminescence reading was immediately recorded using the SpectraMax i3."}, "[4]": {"test_system": "influenza virus", "conditions": "early study, Science 357, 498-502 (2017); cited from earlier work"}},
  "data": [
    {"smiles": "O=C(O)CCc1cccc(O)c1", "note": "[Compound I-2, 3-(3-hydroxyphenyl)propanoic acid]", "values": [
      {"measurement": "GSDMD cleavage in the presence of LPS or LPS+NG stimulation", "setting": "[1]", "value": "facilitating gasdermin D cleavage"},
      {"measurement": "IRF pathway activation combined with PRR agonists", "setting": "[2]", "value": "potentiate"},
      {"measurement": "NF-κB pathway activation combined with PRR agonists", "setting": "[3]", "value": "potentiate"},
      {"measurement": "NF-κB pathway activation when treated with LPS", "setting": "[3]", "value": "potentiates"}
    ]},
    {"smiles": "O=C(O)CCc1ccc(O)cc1", "note": "[Compound I-3, 3-(4-hydroxyphenyl)propanoic acid]", "values": [
      {"measurement": "influenza virus pathology", "setting": "[4]", "value": "protects from influenza virus pathology"},
      {"measurement": "type 1 interferon signalling", "setting": "[4]", "value": "primes the amplification loop of type 1 interferon signalling"},
      {"measurement": "GSDMD cleavage in the presence of LPS or LPS+NG stimulation", "setting": "[1]", "value": "facilitating gasdermin D cleavage"},
      {"measurement": "IRF pathway activation combined with PRR agonists", "setting": "[2]", "value": "potentiate"},
      {"measurement": "NF-κB pathway activation combined with PRR agonists", "setting": "[3]", "value": "potentiate"},
      {"measurement": "NF-κB pathway activation when treated with LPS", "setting": "[3]", "value": "potentiates"}
    ]},
    {"smiles": "O=C([O-])CCc1ccc(O)cc1.[Na+]", "note": "[Compound I-4, sodium 3-(4-hydroxyphenyl)propionic acid]", "values": [
      {"measurement": "NF-κB pathway activation when treated with LPS", "setting": "[3]", "value": "significantly enhanced the activation"}
    ]},
    {"smiles": "COC(=O)CCc1ccc(O)cc1", "note": "[Compound I-5, methyl 3-(4-hydroxyphenyl) propionate]", "values": [
      {"measurement": "NF-κB pathway activation when treated with LPS", "setting": "[3]", "value": "significantly enhanced the activation"}
    ]},
    {"smiles": "CCOC(=O)CCc1ccc(O)cc1", "note": "[Compound I-6, ethyl 3-(4-hydroxyphenyl)propionate]", "values": [
      {"measurement": "NF-κB pathway activation when treated with LPS", "setting": "[3]", "value": "significantly enhanced the activation"}
    ]},
    {"smiles": "O=C(CCc1ccc(O)cc1)ON1C(=O)CCC1=O", "note": "[Compound I-7, 3-(4-hydroxyphenyl)propionic acid N-hydroxysuccinimide ester]", "values": [
      {"measurement": "NF-κB pathway activation when treated with LPS", "setting": "[3]", "value": "significantly enhanced the activation"}
    ]},
    {"smiles": "O=C(O)CCc1ccc(F)cc1", "note": "[II-1, 3-(4-fluorophenyl)propionic acid]", "values": [
      {"measurement": "NF-κB pathway activation when treated with LPS", "setting": "[3]", "value": "significantly enhanced the activation"}
    ]},
    {"smiles": "O=C(O)CCc1ccc(Cl)cc1", "note": "[II-2, 3-(4-chlorophenyl)propionic acid]", "values": [
      {"measurement": "NF-κB pathway activation when treated with LPS", "setting": "[3]", "value": "significantly enhanced the activation"}
    ]},
    {"smiles": "Nc1ccc(CCC(=O)O)cc1", "note": "[II-3, 3-(4-aminophenyl)propionic acid]", "values": [
      {"measurement": "NF-κB pathway activation when treated with LPS", "setting": "[3]", "value": "significantly enhanced the activation"}
    ]},
    {"smiles": "Cc1ccc(CCC(=O)O)cc1", "note": "[II-4, 3-(4-methylphenyl)propionic acid]", "values": [
      {"measurement": "NF-κB pathway activation when treated with LPS", "setting": "[3]", "value": "significantly enhanced the activation"}
    ]},
    {"smiles": "O=C(O)CCCc1ccc(O)cc1", "note": "[III-1, 4-(4-hydroxyphenyl)butanoic acid]", "values": [
      {"measurement": "NF-κB pathway activation when treated with LPS", "setting": "[3]", "value": "significantly enhanced the activation"}
    ]},
    {"smiles": "O=C(O)CCCCc1ccc(O)cc1", "note": "[III-2, 5-(4-hydroxyphenyl)pentatonic acid]", "values": [
      {"measurement": "NF-κB pathway activation when treated with LPS", "setting": "[3]", "value": "significantly enhanced the activation"}
    ]},
    {"smiles": "O=C(O)CCC(=O)c1ccc(O)cc1", "note": "[IV]", "values": [
      {"measurement": "NF-κB pathway activation when treated with LPS", "setting": "[3]", "value": "significantly enhanced the activation"}
    ]},
    {"smiles": "NC(=O)CC[C@H](N)C(=O)O", "note": "[L-gln, L-glutamine, reference compound]", "values": [
      {"measurement": "IRF pathway activation combined with PRR agonists", "setting": "[2]", "value": "had no effect"},
      {"measurement": "NF-κB pathway activation when treated with LPS", "setting": "[3]", "value": "had no effect"}
    ]}
  ]
}
